# Experimental data taken from publication PMC6513986, “Molecular basis for heat desensitization of TRPV1 ion channels” (Nature Communications, 2019).
# Read-outs that look alike come from different tables or passages of the source.
# Legend:
# mouse TRPV1 (mV1) = mouse TRPV1 (mV1) (Mus musculus, UniProt Q704Y3); assay: Agonist activation, patch clamp, HEK293T; format: cell-based; conditions: read-out: EC50_Capsaicin
# Fruit bat TRPV1 = Fruit bat TRPV1 (Carollia brevicauda, UniProt G1DJ79); assay: Agonist activation, patch clamp, HEK293T; format: cell-based; conditions: read-out: EC50_Capsaicin
# Camel TRPV1 = Camel TRPV1 (Camelus ferus, UniProt A0A8B8UHM1); assay: Agonist activation, patch clamp, HEK293T; format: cell-based; conditions: read-out: EC50_Capsaicin
# Camel TRPV1, sequence (A0A8B8UHM1 1-838): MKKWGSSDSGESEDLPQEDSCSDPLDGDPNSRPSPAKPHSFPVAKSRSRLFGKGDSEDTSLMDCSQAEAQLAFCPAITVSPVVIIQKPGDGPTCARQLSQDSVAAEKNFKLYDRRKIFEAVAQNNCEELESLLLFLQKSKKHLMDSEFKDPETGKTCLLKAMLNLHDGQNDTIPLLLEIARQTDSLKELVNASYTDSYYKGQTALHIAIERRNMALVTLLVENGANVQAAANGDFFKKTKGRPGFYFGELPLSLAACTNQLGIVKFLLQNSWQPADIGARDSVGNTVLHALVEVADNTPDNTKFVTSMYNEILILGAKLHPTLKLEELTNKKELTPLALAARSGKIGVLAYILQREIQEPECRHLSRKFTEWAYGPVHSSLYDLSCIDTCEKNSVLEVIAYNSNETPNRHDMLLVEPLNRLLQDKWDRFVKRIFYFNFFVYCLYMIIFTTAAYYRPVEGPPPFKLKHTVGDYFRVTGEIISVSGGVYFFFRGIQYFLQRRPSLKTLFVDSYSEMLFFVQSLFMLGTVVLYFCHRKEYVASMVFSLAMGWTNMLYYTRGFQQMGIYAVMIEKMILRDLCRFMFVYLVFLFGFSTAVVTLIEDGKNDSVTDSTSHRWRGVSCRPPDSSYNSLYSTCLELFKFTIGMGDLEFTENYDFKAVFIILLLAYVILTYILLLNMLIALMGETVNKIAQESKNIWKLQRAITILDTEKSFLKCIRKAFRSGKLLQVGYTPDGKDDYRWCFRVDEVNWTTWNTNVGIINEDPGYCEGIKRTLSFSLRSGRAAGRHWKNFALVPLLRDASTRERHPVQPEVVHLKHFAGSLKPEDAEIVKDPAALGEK
# pV1_mNC chimera = pV1_mNC chimera (Ornithorhynchus anatinus, UniProt F7A7B4); assay: Agonist activation, patch clamp, HEK293T; format: cell-based, platypus / mouse; conditions: read-out: EC50_Capsaicin
# pV1_mNC chimera, sequence (F7A7B4 436-691, stated change not applied): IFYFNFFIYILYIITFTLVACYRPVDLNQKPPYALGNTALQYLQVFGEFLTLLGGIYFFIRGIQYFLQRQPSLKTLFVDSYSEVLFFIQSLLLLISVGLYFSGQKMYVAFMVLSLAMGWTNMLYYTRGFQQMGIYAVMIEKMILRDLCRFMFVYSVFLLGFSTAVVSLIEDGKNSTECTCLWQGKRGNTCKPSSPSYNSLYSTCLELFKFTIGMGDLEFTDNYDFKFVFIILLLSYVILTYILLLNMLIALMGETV
# pV1_mNC chimera, sequence (Q704Y3 with tags, fused parts or gaps partner): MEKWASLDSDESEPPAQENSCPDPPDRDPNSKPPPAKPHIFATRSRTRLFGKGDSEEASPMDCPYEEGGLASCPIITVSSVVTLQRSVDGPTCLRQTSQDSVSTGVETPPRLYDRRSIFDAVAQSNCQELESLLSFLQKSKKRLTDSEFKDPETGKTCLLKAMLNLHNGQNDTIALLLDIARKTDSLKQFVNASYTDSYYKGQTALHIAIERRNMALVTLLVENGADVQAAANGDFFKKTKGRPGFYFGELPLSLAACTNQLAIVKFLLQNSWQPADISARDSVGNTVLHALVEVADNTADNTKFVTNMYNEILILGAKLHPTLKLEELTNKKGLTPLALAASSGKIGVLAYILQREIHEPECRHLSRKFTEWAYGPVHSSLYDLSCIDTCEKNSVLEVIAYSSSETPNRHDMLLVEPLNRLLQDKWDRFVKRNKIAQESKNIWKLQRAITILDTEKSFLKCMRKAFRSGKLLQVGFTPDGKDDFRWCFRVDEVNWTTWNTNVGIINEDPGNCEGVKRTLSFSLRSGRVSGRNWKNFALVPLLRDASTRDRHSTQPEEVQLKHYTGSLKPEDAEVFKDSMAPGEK
# pV1_mNC chimera, sequence (Q704Y3 with tags, fused parts or gaps partner): as above
# mV1 CΔ30 (Glu747-Phe776) = mV1 CΔ30 (Glu747-Phe776) (Mus musculus, UniProt Q704Y3, DEL747-776); assay: Agonist activation, patch clamp, HEK293T; format: cell-based; conditions: read-out: EC50_Capsaicin
# mV1 CΔ30 (Glu747-Phe776), sequence (Q704Y3 with tags, fused parts or gaps DEL747-776): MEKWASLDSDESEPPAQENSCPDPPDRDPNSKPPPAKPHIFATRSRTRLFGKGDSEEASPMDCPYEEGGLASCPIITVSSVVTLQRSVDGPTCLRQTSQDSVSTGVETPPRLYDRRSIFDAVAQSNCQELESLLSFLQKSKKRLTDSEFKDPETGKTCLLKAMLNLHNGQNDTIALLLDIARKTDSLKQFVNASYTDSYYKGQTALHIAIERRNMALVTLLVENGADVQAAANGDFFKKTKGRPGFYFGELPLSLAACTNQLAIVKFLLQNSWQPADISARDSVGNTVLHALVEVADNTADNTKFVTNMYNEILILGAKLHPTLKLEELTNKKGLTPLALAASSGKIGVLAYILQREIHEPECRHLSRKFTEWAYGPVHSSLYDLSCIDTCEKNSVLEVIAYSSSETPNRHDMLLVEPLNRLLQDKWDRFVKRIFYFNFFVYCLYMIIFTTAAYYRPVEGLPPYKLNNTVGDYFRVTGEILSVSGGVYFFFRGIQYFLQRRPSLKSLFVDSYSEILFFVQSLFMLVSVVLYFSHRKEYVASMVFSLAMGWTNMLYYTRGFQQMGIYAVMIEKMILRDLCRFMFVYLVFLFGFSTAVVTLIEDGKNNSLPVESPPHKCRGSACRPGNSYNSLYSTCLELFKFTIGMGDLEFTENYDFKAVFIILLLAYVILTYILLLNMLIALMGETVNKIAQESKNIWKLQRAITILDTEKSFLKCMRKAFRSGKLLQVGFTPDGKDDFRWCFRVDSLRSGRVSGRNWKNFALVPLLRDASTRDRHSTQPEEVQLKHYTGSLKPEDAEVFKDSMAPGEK
# mV1 CΔ23 (Ser777-Asp799) = mV1 CΔ23 (Ser777-Asp799) (Mus musculus, UniProt Q704Y3, DEL777-799); assay: Agonist activation, patch clamp, HEK293T; format: cell-based; conditions: read-out: EC50_Capsaicin
# mV1 CΔ23 (Ser777-Asp799), sequence (Q704Y3 with tags, fused parts or gaps DEL777-799): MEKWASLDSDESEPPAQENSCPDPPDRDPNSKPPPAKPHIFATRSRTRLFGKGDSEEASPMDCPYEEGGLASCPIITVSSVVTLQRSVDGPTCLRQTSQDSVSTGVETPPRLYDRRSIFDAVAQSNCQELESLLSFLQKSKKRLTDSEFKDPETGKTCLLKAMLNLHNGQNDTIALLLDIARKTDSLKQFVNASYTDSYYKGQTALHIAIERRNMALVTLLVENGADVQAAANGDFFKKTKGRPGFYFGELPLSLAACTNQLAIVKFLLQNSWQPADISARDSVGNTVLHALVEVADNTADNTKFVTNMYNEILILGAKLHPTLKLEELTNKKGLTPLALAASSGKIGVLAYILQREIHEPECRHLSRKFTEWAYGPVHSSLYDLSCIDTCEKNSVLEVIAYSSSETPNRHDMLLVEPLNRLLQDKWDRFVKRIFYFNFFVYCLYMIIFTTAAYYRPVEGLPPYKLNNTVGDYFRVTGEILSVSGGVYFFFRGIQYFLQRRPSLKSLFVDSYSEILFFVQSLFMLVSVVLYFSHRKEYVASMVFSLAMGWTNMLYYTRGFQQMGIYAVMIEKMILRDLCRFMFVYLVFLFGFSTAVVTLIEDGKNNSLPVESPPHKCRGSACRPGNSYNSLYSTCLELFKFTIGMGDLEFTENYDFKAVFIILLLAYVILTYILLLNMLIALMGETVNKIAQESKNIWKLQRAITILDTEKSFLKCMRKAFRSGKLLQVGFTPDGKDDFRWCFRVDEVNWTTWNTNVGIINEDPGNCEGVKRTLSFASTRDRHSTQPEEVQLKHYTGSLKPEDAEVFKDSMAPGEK
# mV1 S116A = mV1 S116A (Mus musculus, UniProt Q704Y3, S117A); assay: Agonist activation, patch clamp, HEK293T; format: cell-based; conditions: read-out: EC50_Capsaicin
# mV1 S116A, sequence (Q704Y3 whole entry S117A): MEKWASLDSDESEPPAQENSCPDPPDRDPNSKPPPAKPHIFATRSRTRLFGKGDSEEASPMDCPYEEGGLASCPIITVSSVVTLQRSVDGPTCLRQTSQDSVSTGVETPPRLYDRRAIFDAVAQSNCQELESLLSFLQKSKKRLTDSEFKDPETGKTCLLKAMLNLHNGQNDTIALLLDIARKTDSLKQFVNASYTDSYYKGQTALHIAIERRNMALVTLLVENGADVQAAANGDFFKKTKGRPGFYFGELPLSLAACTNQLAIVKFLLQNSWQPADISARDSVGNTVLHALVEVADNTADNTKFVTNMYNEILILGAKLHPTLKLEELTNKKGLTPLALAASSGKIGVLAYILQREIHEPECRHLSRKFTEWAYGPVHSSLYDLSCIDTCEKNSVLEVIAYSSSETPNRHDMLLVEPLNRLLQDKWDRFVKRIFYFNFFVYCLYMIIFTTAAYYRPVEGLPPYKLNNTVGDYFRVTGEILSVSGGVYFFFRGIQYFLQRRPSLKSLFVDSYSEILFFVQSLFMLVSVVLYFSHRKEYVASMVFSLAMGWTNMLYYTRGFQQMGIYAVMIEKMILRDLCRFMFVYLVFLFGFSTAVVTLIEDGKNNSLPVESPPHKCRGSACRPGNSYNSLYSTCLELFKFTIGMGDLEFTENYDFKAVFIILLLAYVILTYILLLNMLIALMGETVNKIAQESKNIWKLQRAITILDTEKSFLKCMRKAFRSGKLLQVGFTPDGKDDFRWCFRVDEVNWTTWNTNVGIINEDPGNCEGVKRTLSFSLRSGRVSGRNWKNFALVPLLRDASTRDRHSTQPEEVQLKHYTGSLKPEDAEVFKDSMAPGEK
# mV1 K831A = mV1 K831A (Mus musculus, UniProt Q704Y3, K831A); assay: Agonist activation, patch clamp, HEK293T; format: cell-based; conditions: read-out: EC50_Capsaicin
# mV1 K831A, sequence (Q704Y3 whole entry K831A): as the sequence (Q704Y3 whole entry S117A) above, with A117S, K831A counted along it
# mV1 D832A = mV1 D832A (Mus musculus, UniProt Q704Y3, D832A); assay: Agonist activation, patch clamp, HEK293T; format: cell-based; conditions: read-out: EC50_Capsaicin
# mV1 D832A, sequence (Q704Y3 whole entry D832A): as the sequence (Q704Y3 whole entry S117A) above, with A117S, D832A counted along it
# mV1 E838A = mV1 E838A (Mus musculus, UniProt Q704Y3, E838A); assay: Agonist activation, patch clamp, HEK293T; format: cell-based; conditions: read-out: EC50_Capsaicin
# mV1 E838A, sequence (Q704Y3 whole entry E838A): as the sequence (Q704Y3 whole entry S117A) above, with A117S, E838A counted along it
# mV1_579 (ANAP) = mV1_579 (ANAP) (Mus musculus, UniProt Q704Y3, C579X); assay: Agonist activation of ANAP-incorporated channel, patch clamp; format: cell-based
# mV1_685 (ANAP) = mV1_685 (ANAP) (Mus musculus, UniProt Q704Y3, E685X); assay: as above; format: cell-based
# [1] = test system: DRG neurons of p-trpv1 mice; assay: Patch clamp of DRG neurons of p-trpv1 mice; format: cell-based, mouse; conditions: small diameter DRG neurons, patch clamping
# Protocol: All recordings were performed at room temperature.
# DRG neurons were acutely dissociated and maintained in a short-term primary culture according to procedures. Briefly, after mice were killed by CO2 inhalation and decapitated, vertebral column was opened by a dorsal approach. DRG neurons were collected using fine forceps from both sides of the spinal column and transferred into DMEM medium (GIBCO), and the spinal nerves were cut off using fine ophthalmological scissors and digested by […] (m/m, Sigma) for 20 min. Following the wash of collagenase and trypsin, DRG neurons were incubated at 37 °C in 5% CO2. Cells were used for electrophysiological experiments within the next 24 h.
# TRPV1 = conditions: cited from earlier work
# mouse TRPV1 (mV1), sequence (Q704Y3 whole entry): as the sequence (Q704Y3 whole entry S117A) above, with A117S counted along it
smiles,measurement,setting,value
"COc1cc(CNC(=O)CCCC/C=C/C(C)C)ccc1O [Capsaicin, capsaicin]",EC50,"mouse TRPV1 (mV1); Supp Table 1 data, replicate 1",249 nM
same,EC50,"mouse TRPV1 (mV1); Supp Table 1 data, replicate 2",299 nM
same,EC50,"mouse TRPV1 (mV1); Supp Table 2 data, replicate 1",277 nM
same,EC50,"mouse TRPV1 (mV1); Supp Table 2 data, replicate 2",302 nM
same,EC50,"mouse TRPV1 (mV1); Supp Table 3 data, replicate 1",276 nM
same,EC50,"mouse TRPV1 (mV1); Supp Table 3 data, replicate 2",306 nM
same,EC50,"mouse TRPV1 (mV1); Supp Table 3 data, replicate 3",315 nM
same,EC50,"mouse TRPV1 (mV1); Supp Table 4 data, replicate 1",297 nM
same,EC50,"mouse TRPV1 (mV1); Supp Table 4 data, replicate 2",279 nM
same,EC50,"mouse TRPV1 (mV1); Supp Table 4 data, replicate 3",321 nM
same,EC50,"Fruit bat TRPV1; mean ± s.e.m., n = 6",354 ± 25 nM
same,EC50,Fruit bat TRPV1; replicate 1,273 nM
same,EC50,Fruit bat TRPV1; replicate 2,389 nM
same,EC50,Fruit bat TRPV1; replicate 3,419 nM
same,EC50,Fruit bat TRPV1; replicate 4,415 nM
same,EC50,Fruit bat TRPV1; replicate 5,274 nM
same,EC50,Fruit bat TRPV1; replicate 6,354 nM
same,EC50,"Camel TRPV1; mean ± s.e.m., n = 5",540 nM
same,EC50,Camel TRPV1; replicate 1,445 nM
same,EC50,Camel TRPV1; replicate 2,443 nM
same,EC50,Camel TRPV1; replicate 3,562 nM
same,EC50,Camel TRPV1; replicate 4,619 nM
same,EC50,Camel TRPV1; replicate 5,631 nM
same,EC50,"pV1_mNC chimera; mean ± s.e.m., n = 6",306 nM
same,EC50,pV1_mNC chimera; replicate 3,300 nM
same,EC50,pV1_mNC chimera; replicate 4,276 nM
same,EC50,"mV1 CΔ30 (Glu747-Phe776); mean ± s.e.m., n = 5",372 nM
same,EC50,mV1 CΔ30 (Glu747-Phe776); replicate 1,252 nM
same,EC50,mV1 CΔ30 (Glu747-Phe776); replicate 2,260 nM
same,EC50,mV1 CΔ30 (Glu747-Phe776); replicate 3,424 nM
same,EC50,mV1 CΔ30 (Glu747-Phe776); replicate 4,463 nM
same,EC50,mV1 CΔ30 (Glu747-Phe776); replicate 5,461 nM
same,EC50,"mV1 CΔ23 (Ser777-Asp799); mean ± s.e.m., n = 3",398 nM
same,EC50,mV1 CΔ23 (Ser777-Asp799); replicate 1,320 nM
same,EC50,mV1 CΔ23 (Ser777-Asp799); replicate 2,353 nM
same,EC50,mV1 CΔ23 (Ser777-Asp799); replicate 3,521 nM
same,EC50,"mV1 S116A; mean ± s.e.m., n = 3",186 nM
same,EC50,mV1 S116A; replicate 1,191 nM
same,EC50,mV1 S116A; replicate 2,161 nM
same,EC50,mV1 S116A; replicate 3,206 nM
same,EC50,"mV1 K831A; mean ± s.e.m., n = 3",354 nM
same,EC50,mV1 K831A; replicate 1,417 nM
same,EC50,mV1 K831A; replicate 2,355 nM
same,EC50,mV1 K831A; replicate 3,290 nM
same,EC50,"mV1 D832A; mean ± s.e.m., n = 3",361 nM
same,EC50,mV1 D832A; replicate 1,372 nM
same,EC50,mV1 D832A; replicate 2,282 nM
same,EC50,mV1 D832A; replicate 3,429 nM
same,EC50,"mV1 E838A; mean ± s.e.m., n = 3",565 nM
same,EC50,mV1 E838A; replicate 1,660 nM
same,EC50,mV1 E838A; replicate 2,597 nM
same,EC50,mV1 E838A; replicate 3,438 nM
same,EC50,mV1_579 (ANAP),293 nM
same,EC50_Capsaicin,mV1_579 (ANAP); replicate 2,297 nM
same,EC50,mV1_685 (ANAP),295 nM
same,EC50_Capsaicin,mV1_685 (ANAP); replicate 1,321 nM
same,EC50_Capsaicin,mV1_685 (ANAP); replicate 3,335 nM
same,EC50_Capsaicin,mV1_685 (ANAP); replicate 4,287 nM
same,EC50_Capsaicin,mV1_685 (ANAP); replicate 5,299 nM
same,EC50_Capsaicin,mV1_685 (ANAP); replicate 6,268 nM
same,EC50_Capsaicin,mV1_685 (ANAP); replicate 7,335 nM
same,EC50_Capsaicin,mV1_685 (ANAP); replicate 8,254 nM
same,response to capsaicin,[1],well maintained
same,effect of capsaicin administration,TRPV1,a burning sensation and acute drop in body core temperature (hypothermia)
